# Data from US5486597A, “Tetrapeptide derivatives and analogues” (James Black Foundation Limited, priority 1990, dated 1996).
# Key:
# Type in all cases: cell-based
# [1] = target: T1, gastrin receptor (Cavia porcellus, UniProt H0VZC5); experiment: guinea-pig fundus assay for gastrin activity (stomach muscle strips); details: 10^-8 M devazepide present, 60 minute equilibration, agonist e.g. pentagastrin, standard errors less than 5%
# T1 construct: Strips of muscle (approximately 2.5 cm by 1 cm) are removed from the proximal area of the stomach; from tissue; host or cells: guinea-pig proximal stomach (fundus) muscle strips
# T1 sequence (H0VZC5 1-426): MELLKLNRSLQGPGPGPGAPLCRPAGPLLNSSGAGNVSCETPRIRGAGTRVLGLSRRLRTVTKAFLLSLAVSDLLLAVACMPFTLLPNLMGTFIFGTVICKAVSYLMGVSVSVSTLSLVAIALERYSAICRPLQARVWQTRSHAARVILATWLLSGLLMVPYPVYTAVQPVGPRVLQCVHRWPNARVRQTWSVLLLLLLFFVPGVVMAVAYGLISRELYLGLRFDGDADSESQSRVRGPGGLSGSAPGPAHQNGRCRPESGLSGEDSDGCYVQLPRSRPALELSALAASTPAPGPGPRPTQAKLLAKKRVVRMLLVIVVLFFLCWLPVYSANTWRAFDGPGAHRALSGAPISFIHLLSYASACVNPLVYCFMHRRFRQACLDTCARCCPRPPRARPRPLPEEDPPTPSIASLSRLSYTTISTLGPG
# Outline: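 Proximal stomach muscle strips from male Dunkin-Hartley guinea-pigs were mounted on isotonic transducers at 0.35 g in gassed Krebs containing 10^-8 M devazepide to block CCK receptors, with 10 mM KCl added. Test compounds were equilibrated 60 min before cumulative pentagastrin dose-response curves were run.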
# [2] = target: T2, cholecystokinin receptors (Cavia porcellus, UniProt Q63931); experiment: CCK-antagonist activity in isolated guinea-pig gall-bladder strip preparations; details: guinea-pig gall-bladder strips; CCK-8 as agonist; test compound incubated for 60 minutes; standard errors less than 5%
# T2 construct: Isolated, strip preparations were prepared from gall-bladders removed from male Dunkin-Hartley guinea-pigs; from tissue; host or cells: guinea-pig gall-bladder strips
# T2 sequence (Q63931 1-430): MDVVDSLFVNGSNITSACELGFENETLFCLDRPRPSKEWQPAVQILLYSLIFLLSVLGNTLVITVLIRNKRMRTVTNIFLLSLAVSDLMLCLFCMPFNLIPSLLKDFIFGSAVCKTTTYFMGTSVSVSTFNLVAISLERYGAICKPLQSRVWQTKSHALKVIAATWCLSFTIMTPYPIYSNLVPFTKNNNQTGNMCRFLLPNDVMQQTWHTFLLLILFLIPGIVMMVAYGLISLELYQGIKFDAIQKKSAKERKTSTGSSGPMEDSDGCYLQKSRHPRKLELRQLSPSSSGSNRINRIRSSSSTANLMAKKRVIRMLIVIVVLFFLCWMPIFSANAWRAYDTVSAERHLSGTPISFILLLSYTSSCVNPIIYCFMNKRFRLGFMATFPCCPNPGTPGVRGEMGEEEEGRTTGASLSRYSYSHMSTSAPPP
# Outline: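 Male Dunkin-Hartley guinea-pig gall-bladder strips under 1 g isometric tension in Krebs (0.5 mM Ca²⁺), 37° C, 95% O2/5% CO2, stabilised 90 min. Cumulative CCK-8 concentration-effect curves without and with test compound (60 min preincubation); antagonism expressed as […] by modified competitive analysis.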
# [3] = target: T3, gastrin receptor (Mus musculus, UniProt P56481); experiment: mouse stomach assay for gastrin activity (isolated stomach, acid secretion); details: for pKB mouse stomach: isolated mouse stomach assay, gastrin antagonism, standard errors less than 5%; for Acid seretion at 10^-5 M test compound, relative to pentagastrin (%): mouse stomach, NS = not significant
# T3 construct: assayed for gastrin activity using the mouse stomach assay; from tissue; host or cells: isolated mouse stomach
# T3 sequence (P56481 1-453): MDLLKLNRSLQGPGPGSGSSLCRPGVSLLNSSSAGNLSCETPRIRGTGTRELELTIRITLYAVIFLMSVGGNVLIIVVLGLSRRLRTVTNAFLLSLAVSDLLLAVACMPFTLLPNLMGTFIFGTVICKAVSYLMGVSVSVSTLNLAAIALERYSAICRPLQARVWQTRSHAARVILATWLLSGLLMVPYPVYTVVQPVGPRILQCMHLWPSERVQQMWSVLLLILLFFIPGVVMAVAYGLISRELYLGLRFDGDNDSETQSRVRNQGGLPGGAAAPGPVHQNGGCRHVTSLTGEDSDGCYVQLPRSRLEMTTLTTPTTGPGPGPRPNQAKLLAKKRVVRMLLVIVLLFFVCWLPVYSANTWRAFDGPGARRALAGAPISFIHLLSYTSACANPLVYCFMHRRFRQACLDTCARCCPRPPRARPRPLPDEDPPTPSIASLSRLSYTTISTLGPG
# Experimental: The compounds were assayed for gastrin activity using the mouse stomach assay as described by Black, J. W. and Shankley, N. P., Br. J. Pharmacol., 86, 571-579, (1985), and also in the guinea-pig fundus assay, as follows: […]
pKB [1],pKB [2],pKB mouse stomach [3],SMILES,"Acid seretion at 10^-5 M test compound, relative to pentagastrin (%) [3]"
5.9,7.2,6.0,"COc1ccc(CCNC(=O)[C@H](CC(=O)O)NC(=O)[C@H](Cc2ccc3ccccc3c2)NC(=O)[C@H](Cc2c[nH]c3ccccc23)NC(=O)OC(C)(C)C)cc1 [Example 10, N-t-Butyloxycarbonyl-L-tryptophyl-L-3-(2-naphthyl)alanyl-L-aspartyl-(4-methoxy)phenethylamide]",
5.8,6.9,6.5,"CC(C)(C)OC(=O)N[C@@H](Cc1c[nH]c2ccccc12)C(=O)N[C@@H](Cc1ccc2ccccc2c1)C(=O)N[C@@H](CC(=O)O)C(=O)N[C@@H]1CCC[C@@H]1c1ccccc1 (single isomer, unassigned; diastereomer 2) [Example 34, N-t-Butyloxycarbonyl-L-tryptophyl-L-3-(2-naphthyl)alanyl-L-aspartyl-cis-2-phenylcyclopentylamide (diastereomer 2)]",40%

SMILES,pKB [1],pKB [2],pKB mouse stomach [3],"Acid seretion at 10^-5 M test compound, relative to pentagastrin (%) [3]"
"CC(C)(C)OC(=O)N[C@@H](Cc1c[nH]c2ccccc12)C(=O)N[C@@H](Cc1ccc2ccccc2c1)C(=O)N[C@@H](CC(=O)O)C(=O)NCCc1ccc(F)cc1 [Example 47, N-t-Butyloxycarbonyl-L-tryptophyl-L-3-(2-naphthyl)alanyl-L-aspartyl-4-fluorophenethylamide]",5.8,6.7,5.5,25%
